Like-named read-outs stand apart in the source and are kept apart here.
What was measured:
Assay in all cases: SelectScreen Z'LYTE kinase profiling
Assay type in all cases: biochemical
RPS6KA1 (RSK1) = RPS6KA1 (RSK1) (Homo sapiens, UniProt Q15418); conditions: ATP at apparent KM
Experimental: (§1) protein kinases at a compound concentration of 1 µM. Measurements were performed in duplicates
(§2) and at the particular apparent ATP KM of each individual kinase employing the activity based Z’LYTE®
(§3) kinase assay of the SelectScreen® Kinase Profiling Services (ThermoFisher Scientific).
(§4) kinases at a compound concentration of 1 µM. Measurements were performed in duplicates and at
(§5) the particular apparent ATP KM of each individual kinase employing the activity based Z’LYTE® kinase
(§6) assay of the SelectScreen® Kinase Profiling Services (ThermoFisher Scientific).

MARK1 (MARK) = MARK1 (MARK) (Homo sapiens, UniProt Q9P0L2); conditions: ATP at apparent KM
Experimental: as §1, §2, §3, §4, §5, §6

ROCK2 = ROCK2 (Homo sapiens, UniProt O75116); conditions: ATP at apparent KM
Experimental: as §1, §2, §3, §4, §5, §6

PRKCD (PKC delta) = PRKCD (PKC delta) (Homo sapiens, UniProt Q05655); conditions: ATP at apparent KM
Experimental: as §1, §2, §3, §4, §5, §6

CAMK1D (CaMKI delta) = CAMK1D (CaMKI delta) (Homo sapiens, UniProt Q8IU85); conditions: ATP at apparent KM
Sequence of CAMK1D (CaMKI delta) (Q8IU85 whole entry): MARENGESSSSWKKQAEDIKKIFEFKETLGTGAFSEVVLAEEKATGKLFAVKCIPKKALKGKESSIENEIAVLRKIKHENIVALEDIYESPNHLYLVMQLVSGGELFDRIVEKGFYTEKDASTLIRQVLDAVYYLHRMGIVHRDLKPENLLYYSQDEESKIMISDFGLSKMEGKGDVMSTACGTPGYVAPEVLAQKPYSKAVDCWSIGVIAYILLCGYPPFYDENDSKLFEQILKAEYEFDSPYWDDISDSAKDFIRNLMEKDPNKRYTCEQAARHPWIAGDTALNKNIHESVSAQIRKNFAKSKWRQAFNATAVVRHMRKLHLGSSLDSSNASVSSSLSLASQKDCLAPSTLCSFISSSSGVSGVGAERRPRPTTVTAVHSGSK
Experimental: as §1, §2, §3, §4, §5, §6

ROCK1 = ROCK1 (Homo sapiens, UniProt Q13464); conditions: ATP at apparent KM
Sequence of ROCK1 (Q13464 whole entry): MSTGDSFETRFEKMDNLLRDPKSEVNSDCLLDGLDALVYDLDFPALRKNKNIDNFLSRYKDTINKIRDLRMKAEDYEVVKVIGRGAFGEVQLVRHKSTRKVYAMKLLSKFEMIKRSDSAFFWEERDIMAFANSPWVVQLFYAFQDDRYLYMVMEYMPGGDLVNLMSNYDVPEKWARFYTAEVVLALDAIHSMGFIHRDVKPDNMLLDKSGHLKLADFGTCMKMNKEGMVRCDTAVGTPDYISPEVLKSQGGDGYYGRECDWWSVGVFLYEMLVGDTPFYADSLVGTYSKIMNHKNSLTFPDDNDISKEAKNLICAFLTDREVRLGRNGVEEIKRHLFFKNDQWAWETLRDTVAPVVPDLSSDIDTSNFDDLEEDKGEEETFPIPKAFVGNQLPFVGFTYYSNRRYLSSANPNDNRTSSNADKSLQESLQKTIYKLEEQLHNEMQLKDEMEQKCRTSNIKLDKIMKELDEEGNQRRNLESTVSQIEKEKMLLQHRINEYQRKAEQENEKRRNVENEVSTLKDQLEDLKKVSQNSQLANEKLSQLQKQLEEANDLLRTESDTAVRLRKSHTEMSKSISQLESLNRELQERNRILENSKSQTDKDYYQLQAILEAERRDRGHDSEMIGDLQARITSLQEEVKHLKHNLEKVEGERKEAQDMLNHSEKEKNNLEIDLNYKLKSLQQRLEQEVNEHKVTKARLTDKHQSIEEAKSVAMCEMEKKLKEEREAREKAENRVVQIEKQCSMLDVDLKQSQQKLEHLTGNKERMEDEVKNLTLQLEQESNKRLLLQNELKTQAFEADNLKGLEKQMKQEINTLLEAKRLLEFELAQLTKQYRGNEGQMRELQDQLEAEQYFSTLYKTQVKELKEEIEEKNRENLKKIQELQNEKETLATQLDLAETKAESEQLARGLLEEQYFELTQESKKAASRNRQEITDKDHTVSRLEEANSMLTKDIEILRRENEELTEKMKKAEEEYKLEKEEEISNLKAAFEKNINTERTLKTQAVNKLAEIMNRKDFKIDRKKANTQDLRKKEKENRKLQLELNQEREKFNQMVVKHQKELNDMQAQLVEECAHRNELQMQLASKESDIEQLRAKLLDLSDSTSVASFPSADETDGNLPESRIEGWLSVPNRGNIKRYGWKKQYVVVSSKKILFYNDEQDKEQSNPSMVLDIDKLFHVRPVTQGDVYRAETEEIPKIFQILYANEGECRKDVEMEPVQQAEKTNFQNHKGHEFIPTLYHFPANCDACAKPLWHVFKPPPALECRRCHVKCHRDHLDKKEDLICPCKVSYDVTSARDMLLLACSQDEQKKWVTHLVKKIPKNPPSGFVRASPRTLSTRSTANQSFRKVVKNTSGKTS
Experimental: as §1, §2, §3, §4, §5, §6

PRKX = target: T1, PRKX (Homo sapiens, UniProt P51817); conditions: ATP at apparent KM
T1 sequence (P51817 1-358): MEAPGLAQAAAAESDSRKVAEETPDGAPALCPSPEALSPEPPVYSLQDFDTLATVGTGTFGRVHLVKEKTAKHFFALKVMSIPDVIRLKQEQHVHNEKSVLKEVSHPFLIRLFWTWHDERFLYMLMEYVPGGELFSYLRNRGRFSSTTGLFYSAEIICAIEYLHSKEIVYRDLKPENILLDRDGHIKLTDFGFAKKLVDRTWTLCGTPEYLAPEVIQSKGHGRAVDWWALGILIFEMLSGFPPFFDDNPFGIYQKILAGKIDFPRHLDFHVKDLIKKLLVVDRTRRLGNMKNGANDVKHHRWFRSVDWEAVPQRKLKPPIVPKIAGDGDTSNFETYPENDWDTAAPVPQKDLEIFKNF
Experimental: as §1, §2, §3, §4, §5, §6

AKT2 (PKB beta) = AKT2 (PKB beta) (Homo sapiens, UniProt P31751)
JAK2 = JAK2 (Homo sapiens, UniProt O60674); conditions: ATP at apparent KM
Sequence of JAK2 (O60674 whole entry): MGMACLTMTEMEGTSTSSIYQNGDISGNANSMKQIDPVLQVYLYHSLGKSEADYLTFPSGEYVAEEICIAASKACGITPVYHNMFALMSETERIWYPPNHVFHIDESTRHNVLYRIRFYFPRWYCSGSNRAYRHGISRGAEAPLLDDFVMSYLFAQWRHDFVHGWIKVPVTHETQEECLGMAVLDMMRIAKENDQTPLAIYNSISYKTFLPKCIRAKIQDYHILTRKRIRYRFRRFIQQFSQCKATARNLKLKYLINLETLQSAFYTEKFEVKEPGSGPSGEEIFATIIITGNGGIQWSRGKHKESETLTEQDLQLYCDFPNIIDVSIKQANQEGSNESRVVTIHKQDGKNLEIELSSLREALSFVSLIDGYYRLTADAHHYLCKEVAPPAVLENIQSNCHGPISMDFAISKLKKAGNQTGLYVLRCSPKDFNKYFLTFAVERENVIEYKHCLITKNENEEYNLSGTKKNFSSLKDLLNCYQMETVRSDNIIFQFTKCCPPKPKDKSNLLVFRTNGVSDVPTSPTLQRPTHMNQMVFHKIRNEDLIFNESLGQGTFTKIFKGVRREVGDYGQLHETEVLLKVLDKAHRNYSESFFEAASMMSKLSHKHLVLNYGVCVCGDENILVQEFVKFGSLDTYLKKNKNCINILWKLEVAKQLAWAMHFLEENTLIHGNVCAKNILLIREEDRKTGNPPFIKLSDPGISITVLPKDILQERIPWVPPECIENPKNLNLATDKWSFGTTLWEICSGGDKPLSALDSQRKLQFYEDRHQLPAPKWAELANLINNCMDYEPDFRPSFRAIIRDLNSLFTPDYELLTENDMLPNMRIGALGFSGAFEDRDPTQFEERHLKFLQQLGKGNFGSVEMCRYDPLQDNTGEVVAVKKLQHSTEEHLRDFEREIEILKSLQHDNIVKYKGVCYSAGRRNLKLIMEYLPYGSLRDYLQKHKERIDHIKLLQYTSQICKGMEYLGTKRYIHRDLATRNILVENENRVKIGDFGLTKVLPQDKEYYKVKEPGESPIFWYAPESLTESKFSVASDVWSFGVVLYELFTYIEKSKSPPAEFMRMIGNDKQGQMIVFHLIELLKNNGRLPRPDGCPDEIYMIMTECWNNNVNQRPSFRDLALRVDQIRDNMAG
Experimental: as §1, §2, §3, §4, §5, §6

PRKG1 = target: T2, PRKG1 (Homo sapiens, UniProt Q13976); conditions: ATP at apparent KM
T2 sequence (Q13976 1-671): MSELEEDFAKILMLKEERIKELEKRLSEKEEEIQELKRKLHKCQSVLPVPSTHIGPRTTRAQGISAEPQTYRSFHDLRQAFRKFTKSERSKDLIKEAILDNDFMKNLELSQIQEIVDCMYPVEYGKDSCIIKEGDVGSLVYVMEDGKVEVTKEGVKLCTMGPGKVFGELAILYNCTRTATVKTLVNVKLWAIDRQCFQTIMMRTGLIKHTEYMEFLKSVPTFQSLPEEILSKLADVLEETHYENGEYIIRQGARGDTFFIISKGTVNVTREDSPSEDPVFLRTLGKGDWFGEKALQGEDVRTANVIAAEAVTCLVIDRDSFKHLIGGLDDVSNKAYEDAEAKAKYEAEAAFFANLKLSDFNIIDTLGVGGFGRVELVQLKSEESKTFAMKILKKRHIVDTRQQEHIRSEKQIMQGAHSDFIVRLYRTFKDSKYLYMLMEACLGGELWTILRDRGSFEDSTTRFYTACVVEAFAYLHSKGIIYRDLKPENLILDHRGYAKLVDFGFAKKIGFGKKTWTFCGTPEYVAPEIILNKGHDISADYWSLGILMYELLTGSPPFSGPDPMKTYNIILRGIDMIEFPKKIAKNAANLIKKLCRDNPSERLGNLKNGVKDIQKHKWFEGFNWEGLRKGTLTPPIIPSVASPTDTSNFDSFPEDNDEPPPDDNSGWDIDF

STK3 (MST2) = target: T3, STK3 (MST2) (Homo sapiens, UniProt Q13188); conditions: ATP at apparent KM
T3 sequence (Q13188 1-491): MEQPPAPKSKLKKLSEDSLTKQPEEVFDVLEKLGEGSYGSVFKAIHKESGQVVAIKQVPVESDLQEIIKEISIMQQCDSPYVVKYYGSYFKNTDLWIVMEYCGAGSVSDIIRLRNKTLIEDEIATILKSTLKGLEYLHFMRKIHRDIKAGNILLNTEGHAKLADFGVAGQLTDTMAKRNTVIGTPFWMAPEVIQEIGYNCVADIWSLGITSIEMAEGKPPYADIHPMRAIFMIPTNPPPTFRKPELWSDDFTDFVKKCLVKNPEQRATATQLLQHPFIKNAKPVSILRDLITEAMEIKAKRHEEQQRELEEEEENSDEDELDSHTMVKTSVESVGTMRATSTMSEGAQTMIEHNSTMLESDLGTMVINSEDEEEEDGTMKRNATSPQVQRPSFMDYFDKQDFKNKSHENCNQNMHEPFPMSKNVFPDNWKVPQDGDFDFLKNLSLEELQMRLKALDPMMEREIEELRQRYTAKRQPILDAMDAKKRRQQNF
Experimental: as §1, §2, §3, §4, §5, §6

RPS6KA3 (RSK2) = RPS6KA3 (RSK2) (Homo sapiens, UniProt P51812); conditions: ATP at apparent KM
Experimental: as §1, §2, §3, §4, §5, §6

AURKA (Aurora A) = target: T4, AURKA (Aurora A) (Homo sapiens, UniProt O14965); conditions: ATP at apparent KM
T4 sequence (O14965 1-403): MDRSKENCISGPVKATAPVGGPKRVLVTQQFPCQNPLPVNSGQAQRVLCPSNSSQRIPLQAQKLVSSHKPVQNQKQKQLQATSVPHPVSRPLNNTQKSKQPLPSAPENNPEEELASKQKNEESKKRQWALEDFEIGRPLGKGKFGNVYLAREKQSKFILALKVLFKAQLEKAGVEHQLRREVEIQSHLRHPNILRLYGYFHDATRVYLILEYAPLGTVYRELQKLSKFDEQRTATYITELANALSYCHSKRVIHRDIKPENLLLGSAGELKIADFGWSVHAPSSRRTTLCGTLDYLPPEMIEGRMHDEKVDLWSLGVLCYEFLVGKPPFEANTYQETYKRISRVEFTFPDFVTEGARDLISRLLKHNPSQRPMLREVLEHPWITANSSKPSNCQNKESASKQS
Experimental: as §1, §2, §3, §4, §5, §6

Sequence of RPS6KA1 (RSK1) (Q15418 whole entry): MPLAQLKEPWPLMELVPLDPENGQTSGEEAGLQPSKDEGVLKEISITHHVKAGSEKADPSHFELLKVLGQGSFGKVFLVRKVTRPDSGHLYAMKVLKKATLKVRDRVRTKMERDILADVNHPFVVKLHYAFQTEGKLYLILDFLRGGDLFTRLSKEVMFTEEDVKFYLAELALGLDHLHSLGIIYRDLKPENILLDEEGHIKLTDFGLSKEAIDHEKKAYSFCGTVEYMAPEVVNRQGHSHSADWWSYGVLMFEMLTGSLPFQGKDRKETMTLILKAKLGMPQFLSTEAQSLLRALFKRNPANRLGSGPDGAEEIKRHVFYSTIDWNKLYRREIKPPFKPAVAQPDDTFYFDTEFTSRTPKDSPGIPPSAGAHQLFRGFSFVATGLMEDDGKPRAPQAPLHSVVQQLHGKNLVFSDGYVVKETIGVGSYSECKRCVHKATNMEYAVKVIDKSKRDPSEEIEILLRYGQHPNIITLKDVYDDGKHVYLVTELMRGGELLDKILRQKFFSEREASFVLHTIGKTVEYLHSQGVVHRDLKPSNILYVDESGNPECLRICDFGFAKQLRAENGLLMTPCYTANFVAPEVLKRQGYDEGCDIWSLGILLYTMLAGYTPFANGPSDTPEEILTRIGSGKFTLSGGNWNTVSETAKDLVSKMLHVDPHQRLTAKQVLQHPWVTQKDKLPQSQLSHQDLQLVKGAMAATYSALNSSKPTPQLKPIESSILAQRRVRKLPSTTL
Sequence of ROCK2 (O75116 whole entry): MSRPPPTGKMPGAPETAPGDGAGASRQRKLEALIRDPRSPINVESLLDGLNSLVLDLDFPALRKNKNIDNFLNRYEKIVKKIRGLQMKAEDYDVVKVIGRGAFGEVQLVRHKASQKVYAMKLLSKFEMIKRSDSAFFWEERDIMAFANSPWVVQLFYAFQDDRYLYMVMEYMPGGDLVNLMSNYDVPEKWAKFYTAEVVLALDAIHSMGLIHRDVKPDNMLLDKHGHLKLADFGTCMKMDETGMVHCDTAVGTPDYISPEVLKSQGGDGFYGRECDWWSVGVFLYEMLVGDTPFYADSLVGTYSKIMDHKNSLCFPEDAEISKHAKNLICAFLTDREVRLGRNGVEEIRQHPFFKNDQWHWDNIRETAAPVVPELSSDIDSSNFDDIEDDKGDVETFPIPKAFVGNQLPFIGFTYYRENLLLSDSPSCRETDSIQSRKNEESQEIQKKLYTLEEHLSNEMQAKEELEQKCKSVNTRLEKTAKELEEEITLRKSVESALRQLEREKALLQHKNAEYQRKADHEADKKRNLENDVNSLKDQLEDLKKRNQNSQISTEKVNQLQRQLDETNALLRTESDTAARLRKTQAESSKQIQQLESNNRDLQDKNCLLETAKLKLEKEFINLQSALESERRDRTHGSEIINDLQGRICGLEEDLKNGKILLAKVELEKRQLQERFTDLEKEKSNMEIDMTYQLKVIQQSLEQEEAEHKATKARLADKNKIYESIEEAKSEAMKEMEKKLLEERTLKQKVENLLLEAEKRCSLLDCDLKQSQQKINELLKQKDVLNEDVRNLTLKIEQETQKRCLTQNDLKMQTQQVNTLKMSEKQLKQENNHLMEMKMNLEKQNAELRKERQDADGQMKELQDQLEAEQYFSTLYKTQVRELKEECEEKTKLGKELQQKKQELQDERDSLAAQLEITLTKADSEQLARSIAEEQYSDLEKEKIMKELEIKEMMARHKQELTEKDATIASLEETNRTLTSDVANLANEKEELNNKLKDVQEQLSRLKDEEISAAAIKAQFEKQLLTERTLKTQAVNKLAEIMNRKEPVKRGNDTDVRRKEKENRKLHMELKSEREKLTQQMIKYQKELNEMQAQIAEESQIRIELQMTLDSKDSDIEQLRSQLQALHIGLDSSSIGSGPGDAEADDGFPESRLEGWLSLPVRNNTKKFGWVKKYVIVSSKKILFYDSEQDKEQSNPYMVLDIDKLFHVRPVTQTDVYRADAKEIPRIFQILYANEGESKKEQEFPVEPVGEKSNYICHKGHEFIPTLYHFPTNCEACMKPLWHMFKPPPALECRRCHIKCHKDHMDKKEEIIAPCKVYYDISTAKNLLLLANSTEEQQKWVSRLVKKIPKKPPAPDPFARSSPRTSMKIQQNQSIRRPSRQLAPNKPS

Row | SMILES | inhibition at 1 µM (RPS6KA1 (RSK1)) [%] | inhibition at 1 µM (MARK1 (MARK)) [%] | inhibition at 1 µM (ROCK2) [%] | inhibition at 1 µM (PRKCD (PKC delta)) [%] | inhibition at 1 µM (CAMK1D (CaMKI delta)) [%] | inhibition at 1 µM (ROCK1) [%] | inhibition at 1 µM (PRKX) [%] | inhibition at 1 µM (AKT2 (PKB beta); 1 µM, ATP at apparent KM, read-out: % inhibition) [%] | inhibition at 1 µM (JAK2) [%] | inhibition at 1 µM (PRKG1) [%] | inhibition at 1 µM (STK3 (MST2)) [%] | inhibition at 1 µM (RPS6KA3 (RSK2)) [%] | inhibition at 1 µM (AURKA (Aurora A)) [%] | inhibition at 1 µM (AKT2 (PKB beta)) [%]
1 | C=CC(=O)Nc1ccc2c(c1)n(C1CCN(Cc3ccc(-c4nc5cc[nH]c(=O)c5cc4-c4ccccc4)cc3)CC1)c(=O)n2C [24b] | 14 | 2 | 9 | 0 | 9 | 16 | -1 | 97 | 2 | 6 | -13 | 14 | 7 | –
2 | C=CC(=O)Nc1cccc(C(=O)NC2CCN(Cc3ccc(-c4nc5cc[nH]c(=O)c5cc4-c4ccccc4)cc3)CC2)c1 [30b] | 27 | 5 | 21 | 9 | 3 | 34 | -6 | – | 16 | 10 | -19 | 30 | 22 | 76
3 | C=CC(=O)Nc1cc(NC(=O)NC2CCN(Cc3ccc(-c4nc5cc[nH]c(=O)c5cc4-c4ccccc4)cc3)CC2)ccc1Cl [compound 27] | 22 | 7 | 31 | 6 | 12 | 54 | 3 | – | 0 | 11 | -3 | 23 | 10 | 80

Source: paper PMC6430017, “Structural and chemical insights into the covalent-allosteric inhibition of the protein kinase Akt” (Chemical Science, 2019)
